Laboratory results as given in patent publication US11021444B2, “Antiviral compounds” (priority 2013, dated 2021).
Where two headings read alike, the source gives them in different places.

Legend:
[1] = Cytotoxicity Determination (CCK-8, without addition of virus); type: cell-based; details: human, 50% cytotoxicity concentration (CC50)
Procedure, shortened: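 HEp-2 cells were seeded at 1,500 cells/well one day before compound addition. Compounds were tested without virus in duplicate over 7 points from 100 μM in 1/2 steps, with 1% final DMSO, 5 days at 37 °C, 5% CO2. Viability was read by CCK-8 after 3-4 hours.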

[2] = system: Respiratory Syncytial Virus (RSV) long strain; experiment: microbe, parasite or virus in culture; type: cell-based; details: human respiratory syncytial virus, Tables A and B list compounds by EC50 band
Procedure, shortened: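 HEp-2 cells infected with 100 TCID50 virus per well, compounds in duplicate, 9-point 1/3 dilutions from 100 μM or 1 μM, 1% DMSO. After 5 days at 37 °C, cell viability (CPE protection) read by CCK-8 absorbance at 450 nm, 630 nm background.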

RSV replicon = experiment: microbe, parasite or virus in culture; type: cell-based; details: human respiratory syncytial virus, read-out: EC50, the concentration of the drug required for reducing RSV replicon RNA by 50%
recombinant RSV complex = recombinant RSV complex (Human respiratory syncytial virus A, UniProt P28887); experiment: RSV Polymerase Inhibition Assay; type: biochemical
Procedure, shortened: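 10 nM recombinant RSV polymerase complex in Tris-HCl pH 7.5, 6 mM MgCl2 with RNA oligonucleotide template and radionucleotides, incubated 2 h at 30 °C with increasing inhibitor concentrations. Reaction stopped with EDTA; radiolabeled RNA product counted by scintillation.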

[3] = HEp-2, 120 h, read-out: 50% effective concentration (EC50), HEp-2 cells infected with RSV long strain, 5 days, CCK-8 readout
[4] = 120 h, read-out: 50% effective concentration (EC50), HEp-2 cells infected with RSV long strain, 5 days, CCK-8 readout

Chain of recombinant RSV complex (P28887 whole entry): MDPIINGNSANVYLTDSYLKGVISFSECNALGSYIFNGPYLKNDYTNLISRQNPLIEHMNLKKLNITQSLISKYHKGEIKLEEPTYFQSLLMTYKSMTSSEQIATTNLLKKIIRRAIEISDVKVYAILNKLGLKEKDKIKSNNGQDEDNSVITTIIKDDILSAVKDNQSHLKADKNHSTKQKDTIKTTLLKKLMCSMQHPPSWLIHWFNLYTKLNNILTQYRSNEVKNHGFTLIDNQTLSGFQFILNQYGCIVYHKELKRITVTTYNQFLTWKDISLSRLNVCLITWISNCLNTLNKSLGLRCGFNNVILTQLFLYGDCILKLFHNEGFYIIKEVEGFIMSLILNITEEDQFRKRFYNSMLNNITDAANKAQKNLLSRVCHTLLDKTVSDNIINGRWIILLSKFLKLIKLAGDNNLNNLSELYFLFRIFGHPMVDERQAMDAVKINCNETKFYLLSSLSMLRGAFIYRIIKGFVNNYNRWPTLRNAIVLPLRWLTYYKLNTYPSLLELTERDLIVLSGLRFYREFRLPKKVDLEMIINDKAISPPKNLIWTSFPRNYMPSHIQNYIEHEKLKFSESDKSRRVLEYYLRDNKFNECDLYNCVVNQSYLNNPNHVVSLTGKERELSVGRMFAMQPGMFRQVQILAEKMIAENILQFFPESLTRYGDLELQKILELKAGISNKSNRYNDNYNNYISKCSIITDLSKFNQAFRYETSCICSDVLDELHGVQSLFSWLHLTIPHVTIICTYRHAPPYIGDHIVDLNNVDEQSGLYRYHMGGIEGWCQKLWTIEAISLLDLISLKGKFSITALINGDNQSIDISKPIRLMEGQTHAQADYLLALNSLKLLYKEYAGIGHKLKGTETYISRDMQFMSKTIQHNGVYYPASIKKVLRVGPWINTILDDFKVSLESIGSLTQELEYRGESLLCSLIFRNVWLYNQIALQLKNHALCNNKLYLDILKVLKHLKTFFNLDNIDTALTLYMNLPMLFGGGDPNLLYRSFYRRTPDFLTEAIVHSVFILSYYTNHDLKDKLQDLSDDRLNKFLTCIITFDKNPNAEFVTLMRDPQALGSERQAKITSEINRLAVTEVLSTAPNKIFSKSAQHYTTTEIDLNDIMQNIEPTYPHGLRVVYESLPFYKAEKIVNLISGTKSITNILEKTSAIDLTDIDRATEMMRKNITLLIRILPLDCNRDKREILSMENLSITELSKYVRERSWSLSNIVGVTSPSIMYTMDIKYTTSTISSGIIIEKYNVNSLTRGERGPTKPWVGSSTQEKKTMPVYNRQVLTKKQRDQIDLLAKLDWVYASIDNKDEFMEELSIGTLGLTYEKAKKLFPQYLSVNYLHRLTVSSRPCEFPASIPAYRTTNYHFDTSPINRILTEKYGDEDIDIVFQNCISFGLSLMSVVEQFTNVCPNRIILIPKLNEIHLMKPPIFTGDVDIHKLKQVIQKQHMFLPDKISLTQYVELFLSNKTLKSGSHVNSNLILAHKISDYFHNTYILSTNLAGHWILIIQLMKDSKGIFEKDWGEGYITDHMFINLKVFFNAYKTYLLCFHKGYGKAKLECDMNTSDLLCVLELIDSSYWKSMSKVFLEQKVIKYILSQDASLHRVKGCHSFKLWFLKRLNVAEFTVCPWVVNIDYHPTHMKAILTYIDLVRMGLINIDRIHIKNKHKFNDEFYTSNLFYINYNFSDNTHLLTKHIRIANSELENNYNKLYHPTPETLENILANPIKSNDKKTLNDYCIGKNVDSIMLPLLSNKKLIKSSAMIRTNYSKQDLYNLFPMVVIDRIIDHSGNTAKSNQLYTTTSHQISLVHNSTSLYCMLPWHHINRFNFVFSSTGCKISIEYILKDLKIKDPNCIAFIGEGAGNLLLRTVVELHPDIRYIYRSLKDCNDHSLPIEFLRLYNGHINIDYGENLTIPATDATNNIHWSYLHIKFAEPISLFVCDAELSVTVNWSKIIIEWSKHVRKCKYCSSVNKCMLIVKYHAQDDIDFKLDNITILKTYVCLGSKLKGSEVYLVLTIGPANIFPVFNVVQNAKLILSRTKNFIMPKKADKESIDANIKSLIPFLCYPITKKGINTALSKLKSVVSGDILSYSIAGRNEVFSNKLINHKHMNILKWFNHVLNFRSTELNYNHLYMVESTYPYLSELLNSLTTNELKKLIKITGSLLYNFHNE
Chain of recombinant RSV complex (P03421 whole entry, further chain): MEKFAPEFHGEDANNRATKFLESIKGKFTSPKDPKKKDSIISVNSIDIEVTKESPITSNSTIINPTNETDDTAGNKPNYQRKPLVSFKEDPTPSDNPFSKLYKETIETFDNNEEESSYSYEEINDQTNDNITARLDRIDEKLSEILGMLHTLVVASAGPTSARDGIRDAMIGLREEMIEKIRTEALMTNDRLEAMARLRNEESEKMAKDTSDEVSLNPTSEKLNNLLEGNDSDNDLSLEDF

SMILES | CC50 at 5 days [1] [µM] | EC50 [2, 3] [nM] | EC50 (RSV replicon) [nM] | IC50 (recombinant RSV complex) [nM] | EC50 [2, 4] [nM]
COc1cc(C(=O)NCC(O)(c2cc3c(c(-c4ccc(F)c(Cl)c4)n2)OCCC3(C)C)C(F)(F)F)ccc1OC[C@@H](C)O (stereo partly drawn) [Compound 346] | 10 to 100 | < 1000 | < 1000 |  | 
COc1cc(C(=O)NCC(O)(c2cc3c(c(-c4ccc(F)c(Cl)c4)n2)OCCC3(C)C)C(F)(F)F)ccc1OCC(N)=O (stereo not drawn) [Compound 347] | 10 to 100 | < 1000 | < 1000 |  | 
COc1cc(C(=O)NCC(O)(c2cc3c(c(-c4ccc(F)c(Cl)c4)n2)OCCC3(C)C)C(F)(F)F)ccc1OC1CCNC1=O (stereo not drawn) [Compound 348] | 10 to 100 | < 1000 | < 1000 |  | 
COc1cc(C(=O)NCC(O)(c2cc(C(C)(C)O)cc(-c3ccc(F)c(Cl)c3)n2)C(F)(F)F)ccc1OC1CC1 (stereo not drawn) [Compound 386] | 10 to 100 |  | < 1000 | < 1000 | 
CNC(C)(C)c1cc(-c2ccc(F)c(Cl)c2)nc(C(O)(CNC(=O)c2ccc(OC3CC3)c(OC)c2)C(F)(F)F)c1 (stereo not drawn) [Compound 394] |  | < 1000 | < 1000 | < 1000 | 
CCOc1ccc(C(=O)NCC(O)(c2cc3c(c(-c4ccc(F)c(Cl)c4)n2)OCC3(C)N)C(F)(F)F)cc1Cl (stereo not drawn) [Compound 494] |  | < 1000 | < 1000 | < 1000 | 
COc1cc(C(=O)NCC(O)(c2cc(C(C)(C)NC(=O)CN)cc(-c3ccc(F)c(Cl)c3)n2)C(F)(F)F)ccc1OC1CC1 (stereo not drawn) [Compound 497] |  | < 1000 | < 1000 | < 1000 | 
COc1cc(C(=O)NCC(O)(c2cc3c(c(-c4ccc(F)c(Cl)c4)n2)OCC3(C)NCCN)C(F)(F)F)ccc1OC1CC1 (stereo not drawn) [Compound 499] |  | < 1000 | < 1000 | < 1000 | 
COCCNC(C)(C)c1cc(-c2ccc(F)c(Cl)c2)nc(C(O)(CNC(=O)c2ccc(OC3CC3)c(OC)c2)C(F)(F)F)c1 (stereo not drawn) [Compound 505] |  | < 1000 | < 1000 | < 1000 | 
COc1cc(C(=O)NCC(O)(c2cc(C(C)(C)NCCN)cc(-c3ccc(F)c(Cl)c3)n2)C(F)(F)F)ccc1OC1CC1 (stereo not drawn) [Compound 508] |  | < 1000 | < 1000 | < 1000 | 
COc1cc(C(=O)NCC(O)(c2cc(C(C)(C)N)cc(-c3c[nH]c4c(F)cccc34)n2)C(F)(F)F)ccc1OC1CC1 (stereo not drawn) [Compound 519] |  | < 1000 | < 1000 | < 1000 | 
COc1cc(C(=O)NCC(O)(c2cc(C(C)(C)N)cc(-c3ccc(Cl)cc3)n2)C(F)(F)F)ccc1OC1CC1 (stereo not drawn) [Compound 520] |  |  | < 1000 | < 1000 | < 1000
COc1cc(C(=O)NCC(O)(c2cc(C(C)(C)N)cc(-c3ccc(F)c(C(F)(F)F)c3)n2)C(F)(F)F)ccc1OC1CC1 (stereo not drawn) [Compound 521] |  | < 1000 | < 1000 | < 1000 | 
COc1cc(C(=O)NCC(O)(c2cc3c(c(-c4ccc(C#N)cc4)n2)OCC3(C)N)C(F)(F)F)ccc1OC1CC1 (stereo not drawn) [Compound 542] | 10 to 100 |  | < 1000 |  | < 1000
COc1cc(C(=O)NCC(O)(c2cc(C(C)(C)N)cc(-c3ccc(F)c(Cl)c3)n2)C(F)(F)F)ccc1OCC(=O)O (stereo not drawn) [Compound 578] | 10 to 100 |  | < 1000 | < 1000 | 
COc1cc(C(=O)NC[C@](O)(c2cc3c(c(-c4ccc(C#N)cc4)n2)OC[C@]3(C)N)C(F)(F)F)ccc1OCCO [Compound 604d] |  | < 1000 | < 1000 | < 1000 | 
COc1cc(C(=O)NCC(O)(c2cc3c(c(-c4ccc(Br)cc4)n2)OCC3(C)N)C(F)(F)F)ccc1OCCO (stereo not drawn) [Compound 651] |  |  | < 1000 | < 1000 | 
COc1cc(-c2cc(C(C)(C)N)cc(C(O)(CNC(=O)c3ccc(OCCO)c(OC)c3)C(F)(F)F)n2)ccn1 (stereo not drawn) [Compound 659] |  |  | < 1000 | < 10000 | 
COc1cc(C(=O)NCC(O)(c2cc(C(C)(C)N)cc(-c3ccc(F)c(Cl)c3)n2)C2CC2)ccc1OC1CC1 (stereo not drawn) [Compound 667] |  | < 1000 | < 1000 | < 1000 | 
COc1cc(C(=O)NCC(O)(c2cc3c(c(-c4ccc(CO)cc4)n2)OCC3(C)N)C(F)(F)F)ccc1OCCO (stereo not drawn) [Compound 672] | > 100 |  | < 1000 | < 10000 | 
COc1cc(C(=O)NCC(O)(c2cc3c(c(-c4ccc(C(=O)O)cc4)n2)OCC3(C)N)C(F)(F)F)ccc1OCCO (stereo not drawn) [Compound 675] | > 100 |  | < 1000 |  | 
